The record followed here is patent US7456292B2, “Hydroxamic acid-containing amino acid derivatives” (Bexel Pharmaceuticals, Inc., priority 2005, dated 2008).

The target in one assay is T1, MMP-9 (Homo sapiens, UniProt P14780).
T1 construct: purchased Calbiochem PF024-5UG
Description: MMP-9 enzyme inhibition. The assay is classed as biochemical. As to the method:
The enzyme MMP-9 (gelatinase B; EC 3.4.24.35, human recombinant, Calbiochem Cat. PF024-5UG) is used. MMP-9 is first activated with APMA for 60 minutes at 37° C. Test compound and/or vehicle is then preincubated for 60 minutes at 37° C. with the active enzyme (11 nM) in a reaction mixture containing 50 mM MOPS (pH 7.2), 10 mM CaCl2 and 10 μM ZnCl2. The reaction is initiated by addition of 4 μM Mca-Pro-Leu-Gly-Leu-Dpa-Ala-Arg-NH2 (SEQ. ID NO. 1) and incubated for 120 minutes at 37° C. Enzyme activity is determined spectrofluorometrically by measuring the formation of fluorescent Mca-Pro-Leu-Gly (SEQ. ID NO. 2). Compounds are screened at 10 μM.

Assay [1] concerns TNF-α. Description: LPS induced sepsis model in mice, serum TNF-α. The assay is classed as in vivo. Conditions: Mus musculus; SW mice, oral 50 mg/kg body weight one hour before LPS, serum after 90 min. As to the method: (§1) SW mice were orally treated with vehicle, dexamethasone (5 mg/kg) and compounds at a dose of 50 mg/kg body weight one hour before LPS injection (10 μg/mouse, ip) and blood was collected after 90 min and measured serum TNF-α and IL-6 levels by ELISA.

For assay [2], the system named is IL-6. Kind of assay: LPS induced sepsis model in mice, serum IL-6. Conditions: Mus musculus; SW mice, oral 50 mg/kg body weight one hour before LPS, serum after 90 min. The format is in vivo. As to the method:
as §1

For the next assay, the target named is T2, MMP-1 (Homo sapiens, UniProt P03956).
T2 construct: purchased Calbiochem 444208; host or cells: human rheumatoid synovial fibroblast (natural source)
T2 sequence (P03956 100-469): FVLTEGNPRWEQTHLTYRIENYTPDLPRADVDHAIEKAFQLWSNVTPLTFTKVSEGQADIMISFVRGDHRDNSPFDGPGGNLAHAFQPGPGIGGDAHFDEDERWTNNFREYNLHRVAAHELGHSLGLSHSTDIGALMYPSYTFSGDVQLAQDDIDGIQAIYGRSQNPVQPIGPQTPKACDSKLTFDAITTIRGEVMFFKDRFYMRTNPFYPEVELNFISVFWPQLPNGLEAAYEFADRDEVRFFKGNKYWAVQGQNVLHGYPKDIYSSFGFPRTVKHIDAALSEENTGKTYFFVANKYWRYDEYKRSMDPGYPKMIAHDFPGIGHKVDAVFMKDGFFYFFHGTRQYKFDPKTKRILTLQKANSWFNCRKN
Kind of assay: MMP-1 enzyme inhibition. The assay is classed as biochemical. On the procedure: The enzyme MMP-1 (interstitial collagenase; EC 3.4.24.7, human rheumatoid synovial fibroblast, Calbiochem Cat. 444208) is used. MMP-1 is first activated with APMA for 60 minutes at 37° C. Test compound and/or vehicle is then preincubated for 60 minutes at 37° C. with the active enzyme ([…]) in a reaction mixture containing 50 mM MOPS (pH 7.2), 10 mM CaCl2 and 10 μM ZnCl2. The reaction is initiated by addition of Mca-Pro-Leu-Gly-Leu-Dpa-Ala-Arg-NH2 (SEQ. ID NO. 1) (4 μM) and incubated for 120 minutes at 37° C. The N-terminal protecting group Mca is 7-methoxycoumarin-4-yl acetyl. The amino acid Dpa is N^3-(2,4-dinitrophenyl)-L-diaminopropanoyl. Enzyme activity is determined spectrofluorometrically by measuring the formation of fluorescent Mca-Pro-Leu-Gly (SEQ. ID NO. 2). Compounds are screened at 10 μM.

In assay [3] the test system is TNF-α. Kind of assay: TNF-α secretion following LPS stimulation of mouse spleenic macrophages. The format is cell-based. Conditions: Macrophage, LPS stimulated mouse spleenic macrophages, read-out: Mice Spleen Cells (% Inhibition) TNF-α.
The test system of another assay is T cell proliferation. Description: Inhibition of T cell proliferation. The assay is classed as cell-based, mice. The conditions noted are these: Mus musculus, T-cell, 10 μM. As to the method: SJL mice were immunized with keyhole limpet hemocyanin (KLH) in complete Freund's adjuvant (CFA). 12 days later regional lymph nodes were isolated and a proliferative response to KLH in the presence or absence of drug was performed (in presence of 3H thymidine). The results are expressed at Stimulation index (CPM+antigen/CPM no antigen). Similarly, mitogen induced concanavalin A (CON-A), IL-4, IL-2 induced T cell proliferation was measured in presence of compounds are shown in Table VI.

For the next assay, the target named is T3, Human recombinant TACE (Homo sapiens, UniProt P78536).
T3 construct: purchased R&D System 930-ADB; host or cells: Sf21 cells
Description: TACE enzyme inhibition. The format is biochemical. From the text:
Tumor necrosis factor-α converting enzyme (TACE/ADAM-17) is responsible for the release of TNF-α, a potent proinflammatory cytokine associated with many chronic debilitating diseases such as rheumatoid arthritis and multiple sclerosis. TNF-α also induces angiogenesis, promotes fibroblast proliferation and can combine with receptors on selected tumor cells to induce cell lysis. TACE is also implicated in amyloid precursor protein secretion. Human recombinant TACE expressed in Sf21 cells (R&D System, 930-ADB) is used. Test compound and/or vehicle is incubated with the enzyme (25 ng/ml) and 10 μM Mca-P-L-A-Q-A-V-Dpa-R-S-S-S-R-NH2 (SEQ. ID NO. 3) in Modified Tris-buffer pH 9.0 for 30 minutes at 25° C. Enzyme activity is determined spectrofluorimetrically by measuring the formation of fluorescent Mca-P-L-A-Q-A-NH2 (SEQ. ID NO. 4). Compounds are screened at 10 μM.

Assay [4] deals with TNF-α. Kind of assay: LPS induced TNF-α in hPBMC. The assay is classed as cell-based. The conditions noted are these: Homo sapiens; hPBMC, 10 μM, LPS 1 μg/mL 24 hours; * average of two experiments; read-out: Inhibition (%) TNF-α. On the procedure:
(§2) Human PBMC monocyte cells were cultured and incubated with compounds at different concentrations. Cells were then challenged with lipopolysaccharides (LPS) at a concentration of (1 μg/mL) for 24 hours. Cell supernatants were then analyzed for the presence of TNF-α, IL-6 and IL-1β cytokines by antibody directed enzyme-linked immunoassay. Dexamethasone was used as a positive control in the experiments.

A further assay deals with IL-1β. Kind of assay: LPS induced IL-1β in hPBMC. The assay is classed as cell-based. The conditions noted are these: Homo sapiens, LPS 1 μg/mL 24 hours. As to the method:
as §2

The subject of assay [5] is IL-6. Kind of assay: LPS induced IL-6 in hPBMC. The assay is classed as cell-based. Conditions: Homo sapiens, LPS 1 μg/mL 24 hours. On the procedure: as §2
Assay [6] relates to Phosphodiesterase type 4 (PDE4). Kind of assay: PDE-4 enzyme inhibition. The format is biochemical, human.
The test system of a further assay is nitric oxide. Description: Nitric oxide secretion following LPS stimulation of mouse spleenic macrophages. The format is cell-based. The conditions noted are these: Macrophage, LPS stimulated mouse spleenic macrophages, read-out: Mice Spleen Cells (% Inhibition) NO.
Assay [7] concerns Collagen Induced Arthritis Model. Description: Collagen induced arthritis model. Conditions: male DBA/1 Lac mice, oral 50 mg/kg daily. The format is in vivo. On the procedure:
Arthritis induced in male DBA/1 Lac mice with bovine collagen (100 μg/mouse). Booster dose was given on Day 21 and started treatment when clinical score was about 2. […] Dexamethasone was kept as positive control. Severity of each paw score was defined from 0=no erythma to 4=severe arthritis for the swollen paws with a maximum possible score of 16 for 4 paws (4×4) in one animal.

For a further assay, the system named is IL-12. Kind of assay: IL-12 secretion following LPS stimulation of mouse spleenic macrophages. The assay is classed as cell-based. From the text: Compound 6 of this class inhibited IL-12 production in mouse splenic macrophages stimulated with LPS for 72 hrs.
Assay [8] deals with T4, Phosphodiesterase type-3 (PDE3) (Homo sapiens, UniProt Q14432).
T4 construct: from tissue; host or cells: human platelets
Kind of assay: PDE-3 enzyme inhibition. The format is biochemical.

Assay [9] has as its system TNF-α. Kind of assay: LPS induced TNF-α in THP-1 monocytic cells. The assay is classed as cell-based. The conditions noted are these: Homo sapiens, LPS 1 μg/mL 24 hours. On the procedure: Human THP-1 monocyte cells were cultured and incubated with compounds at different concentrations. Cells were then challenged with lipopolysaccharides (LPS) at a concentration of (1 μg/mL) for 24 hours. Cell supernatants were then analyzed for the presence of TNF-α cytokines by antibody directed enzyme-linked immunoassay from R & D System, Minneapolis, USA.

Read-outs that look alike come from different tables or passages of the source.

T3 sequence (P78536 215-671 limits assumed): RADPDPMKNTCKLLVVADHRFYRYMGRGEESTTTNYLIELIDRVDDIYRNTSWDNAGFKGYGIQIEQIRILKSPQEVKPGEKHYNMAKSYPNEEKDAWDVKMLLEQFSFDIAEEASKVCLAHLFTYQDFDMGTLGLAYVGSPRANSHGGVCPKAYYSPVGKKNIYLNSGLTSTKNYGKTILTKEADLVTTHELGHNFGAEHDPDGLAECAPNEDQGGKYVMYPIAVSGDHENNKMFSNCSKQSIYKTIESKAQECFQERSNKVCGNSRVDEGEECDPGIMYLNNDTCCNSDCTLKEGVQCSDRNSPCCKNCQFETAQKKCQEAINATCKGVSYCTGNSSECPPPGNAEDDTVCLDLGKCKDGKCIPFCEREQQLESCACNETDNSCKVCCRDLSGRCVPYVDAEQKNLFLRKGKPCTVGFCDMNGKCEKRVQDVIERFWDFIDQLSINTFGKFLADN
T1 sequence (P14780 107-707 limits assumed): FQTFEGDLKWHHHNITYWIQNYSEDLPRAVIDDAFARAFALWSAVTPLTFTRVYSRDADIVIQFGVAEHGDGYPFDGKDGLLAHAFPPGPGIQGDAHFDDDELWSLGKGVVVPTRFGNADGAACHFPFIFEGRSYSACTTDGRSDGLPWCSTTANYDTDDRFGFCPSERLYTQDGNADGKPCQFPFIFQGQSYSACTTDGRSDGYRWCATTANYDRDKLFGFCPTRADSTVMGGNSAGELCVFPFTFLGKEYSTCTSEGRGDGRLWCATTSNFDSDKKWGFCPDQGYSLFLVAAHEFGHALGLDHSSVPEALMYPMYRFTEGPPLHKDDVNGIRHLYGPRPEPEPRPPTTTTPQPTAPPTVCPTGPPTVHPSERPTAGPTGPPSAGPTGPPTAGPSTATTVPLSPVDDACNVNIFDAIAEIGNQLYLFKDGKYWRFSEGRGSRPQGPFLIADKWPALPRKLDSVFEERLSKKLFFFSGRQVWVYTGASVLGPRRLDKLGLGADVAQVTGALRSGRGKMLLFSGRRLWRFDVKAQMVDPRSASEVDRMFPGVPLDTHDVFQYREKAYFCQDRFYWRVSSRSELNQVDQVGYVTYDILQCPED
T4 sequence (Q14432 whole entry): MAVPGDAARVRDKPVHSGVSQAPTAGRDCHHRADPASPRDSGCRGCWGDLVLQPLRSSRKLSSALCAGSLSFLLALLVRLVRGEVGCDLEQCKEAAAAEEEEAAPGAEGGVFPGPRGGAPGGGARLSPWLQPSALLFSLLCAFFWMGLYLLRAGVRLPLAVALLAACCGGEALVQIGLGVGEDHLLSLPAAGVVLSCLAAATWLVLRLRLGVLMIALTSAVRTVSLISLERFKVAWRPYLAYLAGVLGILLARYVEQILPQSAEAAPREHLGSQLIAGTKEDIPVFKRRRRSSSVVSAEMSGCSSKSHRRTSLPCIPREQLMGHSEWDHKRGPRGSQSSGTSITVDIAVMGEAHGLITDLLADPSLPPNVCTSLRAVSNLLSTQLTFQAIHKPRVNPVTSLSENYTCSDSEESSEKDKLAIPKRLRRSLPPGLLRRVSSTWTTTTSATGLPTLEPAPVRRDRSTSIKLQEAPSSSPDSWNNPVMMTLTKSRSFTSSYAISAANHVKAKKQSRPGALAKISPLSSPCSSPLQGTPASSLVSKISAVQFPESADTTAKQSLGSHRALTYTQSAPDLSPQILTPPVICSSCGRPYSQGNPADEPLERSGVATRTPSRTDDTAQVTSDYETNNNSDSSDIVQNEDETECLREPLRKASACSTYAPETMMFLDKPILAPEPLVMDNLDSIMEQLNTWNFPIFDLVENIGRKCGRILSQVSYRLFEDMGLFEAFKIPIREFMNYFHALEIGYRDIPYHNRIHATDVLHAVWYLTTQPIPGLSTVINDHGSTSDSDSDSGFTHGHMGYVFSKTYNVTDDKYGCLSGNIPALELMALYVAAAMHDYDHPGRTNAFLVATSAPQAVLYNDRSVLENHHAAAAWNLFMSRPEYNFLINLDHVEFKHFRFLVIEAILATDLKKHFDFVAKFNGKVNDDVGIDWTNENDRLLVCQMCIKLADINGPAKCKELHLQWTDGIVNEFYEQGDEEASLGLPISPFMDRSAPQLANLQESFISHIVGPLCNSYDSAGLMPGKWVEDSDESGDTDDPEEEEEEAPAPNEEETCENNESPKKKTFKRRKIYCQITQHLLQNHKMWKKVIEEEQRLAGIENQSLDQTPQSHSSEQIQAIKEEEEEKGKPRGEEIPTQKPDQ

By Inhibition is commonly meant the change of the read-out against control, counted positive when it falls. Lower therefore signals a response near the control. For `Cl.NC(Cc1ccc(Oc2ccc(C(=O)NO)cc2)cc1)C(=O)OCc1ccccc1` (stereo not drawn) [Compound 6, 2-amino-3-[4-(4-hydroxycarbamoylphenoxy)-phenyl]-propionic acid benzyl ester hydrochloric acid salt], the inhibition at 10 µM on MMP-9 is below 0%; at MMP-1, 12%; in the assay on TNF-α [3], 20%; with T cell proliferation (Anti CD3 Abs induced, read-out: Inhibition of T cell proliferation, Anti CD3 Abs), below 80%; with T cell proliferation (CON A induced, read-out: Inhibition of T cell proliferation, CON A), 61 to 80%; with T cell proliferation (IL-2 induced, read-out: Inhibition of T cell proliferation, IL-2) it was 61 to 80%. In addition, the inhibition at 10 µM in the assay on T cell proliferation (IL-4 induced, read-out: Inhibition of T cell proliferation, IL-4) was 61 to 80%; with T cell proliferation (KLH specific, lymph nodes of KLH immunized SJL mice, read-out: Inhibition of T cell proliferation, KLH Specific) it was below 80%; on Human recombinant TACE it was 15%; with TNF-α [4], 69.6%; in the assay with IL-1β it was 73%; with IL-6 [5] it was 97%. In addition, the inhibition at 10 µM came to 20% in the assay with nitric oxide; 80% in the assay on IL-12 (Macrophage, LPS stimulated mouse spleenic macrophages, 10 μM, read-out: Mice Spleen Cells (% Inhibition) IL-12); 3% in assay [8]; 92% in the assay on TNF-α [9]. Besides, the results for the inhibition at 50 mg/kg in the assay with TNF-α [1] and in the assay with IL-6 [2] were 50% and 30%, respectively. Also, the “Inhibition at 10 μM (%) PDE-4” value in [6] is 4%. For the same compound, in assay [7], the arthritic scores entry is “significantly improved the arthritic scores”. In addition, the IL-12 production result in the assay with IL-12 (mouse splenic macrophages stimulated with LPS for 72 hrs) is recorded as “strongly inhibited IL-12 production”.
